For series [1], the system named is S. mutans UA159. The series can be described thus: Confocal microscopy of iSRCR adherence to bacteria. The format is cell-based. As to conditions: 10 μM. How it is done:
S. mutans UA159 and S. gordonii DL1 were grown overnight in TSY (30 g/L of Trypticase soy broth and 0.5 g/L yeast extract, pH 7.2) media on an eight-well Lab Tek Chamber slide system (Sigma). The cells were fixed with 3% paraformaldehyde, washed with binding buffer (20 mM HEPES pH 7.4, 150 mM NaCl and 2.5 mM CaCl2), and thereafter iSRCR1 or iSRCR123 (10 μM) were added to the cells and incubated for 60 min. The unbound SRCRs were removed by repeated washing using the binding buffer. Subsequently, Alexa fluor 488 conjugated Anti-His-tag antibody (EMD Millipore, Inc) (1:50 dilution) that can bind to the His Tag on SRCRs was added. After 60 min incubation the unbound antibody was washed away thoroughly using binding buffer, and the chamber walls were gently removed. Cover slips were then mounted with 15 μl of fluoromount-G with DAPI (Southern Biotech Inc) to stain bacterial nuclei and were sealed until ready to be imaged. The experiment without SRCRs served as control. All slides were imaged using Leica SP1 UV Confocal Laser Scanning Microscope and Zeiss LSM 710 Confocal Laser Scanning Microscope at the UAB-High resolution imaging facility (UAB-HRIF).

Series [2] relates to S. mutans UA159. Briefly: Aggregation assay (OD700 over 60 min). The format is cell-based. As to conditions: iSRCR 10 μM or SAG, 6 mM CaCl2. How it is done: (§1) Aggregation assays were performed as described earlier with slight modifications. Briefly, S. mutans UA159 and S. gordonii DL1 cells were grown in TSY broth media overnight at 37° C. in the presence of 5% CO2. The bacteria were centrifuged at 5000×g and washed with a buffer containing 20 mM HEPES pH 7.4, 150 mM NaCl and re-suspended to an approximate OD700 of 1. The bacterial suspension (900 μl) was mixed with 100 μl of SAG or iSRCR1 (10 μM) or iSRCR123 ([…]) or commercially synthesized (Think Peptides, Inc) SRCRP2 peptide with fluorescein amidite (FAM) at the carboxyl end ([…]-[FAM]) (SEQ ID NO:9, at both 400 μg/ml and 1 mg/ml) in the presence of 6 mM CaCl2 and aggregation was measured by recording OD700over 60 min at 5 min intervals, where the buffer alone was used as control. All experiments were carried out at least five times, and the results were analyzed with One-way ANOVA. Post-hoc testing where *, P<0.05 was considered statistically significant and results were presented as the percentage of cells aggregated.

Series [3] relates to S. gordonii DL1. The series can be described thus: Aggregation assay (OD700 over 60 min). The class given is cell-based. To be noted: iSRCR 10 μM or SAG, 6 mM CaCl2. As for the experimental part: as §1
The test system of series [4] is S. mutans UA159. Briefly: Flow cytometric analysis of iSRCR adherence to bacteria. The format is cell-based. To be noted: 10 μM. As for the experimental part:
(§2) S. mutans UA159 and S. gordonii DL1 cells were grown overnight in TSY broth media at 37° C. and washed thoroughly with FACS buffer (20 mM HEPES pH 7.4, 150 mM NaCl and 5% non-fat dry milk) to reduce non-specific binding. Subsequently, 10 μM of iSRCR1 or iSRCR123 were added to 100 μl of cells (1×10^7 cells/ml) in binding buffer (FACS buffer+2.5 mM CaCl2) and incubated for 60 min at 37° C. The cells were later washed thoroughly with binding buffer to remove unbound iSRCRs. Subsequently, Anti-His tag Alexafluor 488 antibody (1:50 dilution) (EMD Millipore, Inc) that adheres to the His tag present on SRCRs was added to the cells and incubated for 30 min, washed three times and resuspended in 200 μl of binding buffer. Samples without iSRCRs served as control. Samples were then assayed using the FACScan machine (BD Biosciences) at the Analytical and Preparative Cytometry Facility (APCF) at UAB, and data obtained was analyzed using FlowJo 7.2.4 software.
On the technique in general: Flow cytometry measures light scatter and fluorescence of single cells or particles in a stream.

Series [5] relates to S. gordonii DL1. The description is as above. The class given is cell-based. As to conditions: 10 μM, compared with S. mutans. As for the experimental part: as §2
Series [6] in a line: Differential scanning calorimetry, thermostability of SRCRs with calcium. The class given is physicochemical. As to conditions: no added CaCl2. How it is done: The thermostability of SRCRs in the presence of calcium ions was analyzed using Microcal MC-II differential scanning calorimeter (GE HealthCare, USA) as described earlier. Briefly, iSRCR1 or iSRCR123 at concentration of 1 mg/ml was mixed and incubated with different concentration of CaCl2 ranging from (0-100 mM) to final volume of 400 μl of buffer containing 20 mM HEPES, 150 mM NaCl), and buffer without SRCRs served as control. Data were recorded with calorimetric scanning rates that ranged from 30° C./h to 90° C./hat 30 psi pressure. The data collected was analyzed for the unfolding temperature (Tt), and the calorimetric (ΔHcal) and van't Hoff (ΔHv) unfolding enthalpies using the Origin software package (MicroCal).

The record followed here is patent US20160331662A1, “Compositions that Inhibit and Prevent the Formation of Dental Caries and Methods of Using the Same” (priority 2014, published 2016).

Turning to “iSRCR1: recombinant single SRCR domain construct of Gp340 (15 kDa), Drosophila expression system”, the “binding to cells by confocal microscopy (in words)” value in series [1] is on record as “binding”. For the same substance, the “percentage of cells aggregated” value in series [2] stood at 17%; in series [3], 13%. In addition, the “increase in fluorescence intensity compared to the control” value in series [4] was found to be 10 fold. In addition, the “adherence by FACS (in words)” value in series [5] was “lower adherence”. Also, the Tm in series [6] amounted to 56.5 °C.
